Source: patent US5795885A, “Method of inhibiting profileration of cells by administering an aminosterol compound” (priority 1995, dated 1998)

What was measured:
rabbit NHE1 = test: internal pH recovery, PS120 fibroblasts transfected with rabbit NHE1 (BCECF-AM); assay type: cell-based; details: 5 μg/ml; acid-preloaded by 40 mM NH4Cl
Description: PS120 fibroblasts transfected with rabbit or human NHE1 were grown as described above.

[1] = system: human epithelial cell line MCF 10A; test: growth inhibition of human epithelial cells in vitro; assay type: cell-based; details: 10 μg/ml
[2] = system: human foreskin fibroblasts; test: growth inhibition of human foreskin fibroblasts in vitro; assay type: cell-based; details: 10 μg/ml
[3] = system: human microvascular cells; test: endothelial cell cord formation in vitro; assay type: cell-based
From the text: Endothelial cells have the capacity in vitro to form tubular aggregates resembling capillaries in various early stages of formation. This conversion occurs under relatively specific conditions, in which essential growth factors along with an effective substratum are provided. It has been shown that both the interaction of growth factors with the endothelial cell and its attachment to a substratum activate the NHE. The activation of this exchanger is believed to be required for subsequent morphologic transformation of the endothelial cell into a multicellular tubular structure.
To assess the effect of compounds on the cord-like structures formed by human microvascular cells when plated in the presence of VEGF (Vascular Endothelial Growth Factor) and basic fibroblast growth factor on a collagen matrix, a standard cord formation assay was used.

[4] = system: chick chorioallantoic membrane; test: chorioallantoic membrane (CAM) model, capillary growth; assay type: in vivo
From the text: The growing capillaries within the chorioallantoic membrane model (CAM model) have been used as a system in which to evaluate the effect of agents on their potential to inhibit new vessel growth. Neovascularization occurs most aggressively over the first week of embryonic development. Thereafter capillary growth is characterized by principally "elongation" rather than "de novo" formation.
In the standard assay, agents are applied locally to a region of the embryo over which neovascularization will occur. Agents are assessed by their ability to inhibit this process, as evaluated by visual examination about 7 days after application. […] The assay utilized is described in detail in Auerbach et al., Pharm. Ther. 51, 1991, 1-11.

[5] = system: chick embryo vitelline capillaries; test: chick embryo vitelline capillary regression assay; assay type: in vivo; design: key to vitelline capillary regression: +: Vascular reactivity; 0: No vascular reactivity; +/-: Equivocal reactivity; details: for vitelline capillary regression: 60 minutes
Method in brief: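 Compounds applied to 3- to 5-day chick embryos in 0.1 ml of 15% Ficol 400 in PBS. Regression of vitelline capillaries, seen as pinching-off of capillary loops into enclosed sacs, was scored visually after 60 minutes.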

B16 melanoma = B16 melanoma growth in C57B mice; assay type: in vivo, mouse
Description: The growth of B16 melanoma in C57B mice is dependent upon neovascularization.
Using the growth of B16 melanoma cells in C57B mice, a recognized model for the evaluation of inhibitors of angiogenesis on the growth of cancers, the effects of subcutaneous, intraperitoneal and oral administration of squalamine were evaluated.
Based on the idea that tumor growth involves both the clonal expansion of a malignant cell along with the development of a supporting vascular supply, a combination of compound 1436 with squalamine was tested to determine whether it would achieve a synergistic effect on solid tumor growth. This concept was evaluated in the B16 melanoma model.
Animals were implanted with B16 melanoma followed by treatment with compound 1436 or 1256 administered in a combined schedule or separately. […] Thus, a combination of these two compounds achieves a therapeutic benefit in tumors dependent on neovascularization that may prevent metastatic spread.

[6] = system: VX2 carcinoma implanted into the rabbit cornea; test: tumor-induced (VX2 carcinoma) corneal neovascularization in rabbits; assay type: in vivo; details: ELVAX 40 P pellet
From the text: The implantation of VX2 carcinoma into the rabbit cornea results in the induction of new blood vessels within several days (Tamargo et al., Cancer Research 51, 1991, 672-675). It is believed that this carcinoma secretes growth factors that stimulate new blood-vessel growth. Thus, this model is indicative in vivo evidence of therapeutic utility in the treatment of pathological disorders of vascularization, including the metastatic spread of tumors, diabetic retinopathy, macular degeneration, and rheumatoid arthritis.
This experiment followed the published protocol--tumor was implanted adjacent to a polymer containing a concentration of the agent to be evaluated. The polymer releases the agent slowly in the immediate neighborhood of the tumor, providing sustained high local concentrations of the agent. In this experiment, squalamine introduced into a pellet of ELVAX 40 P (DuPont, Wilmington, Del.) inhibited new blood vessel formation by about 60% at days 7 and 14, and by about 25% at day 21.

[7] = system: PHA-stimulated human lymphocytes; test: inhibition of mitogen (PHA)-stimulated growth of human T-cells; assay type: cell-based
From the text: Results are tabulated below.

[8] = system: human coronary artery smooth muscle; test: proliferation of human coronary artery smooth muscle in vitro; assay type: cell-based; details: FIG. 15
From the text: Aminosterols of the invention may also have utility in inhibiting the growth factor mediated proliferation of smooth muscle within the artery. Following coronary angioplasty, reocclusion commonly occurs, secondary to reparative proliferation of the vascular smooth muscle within the wall of the surgically manipulated blood vessel. This process generally takes place over the course of 7-10 days. To evaluate whether an agent could prevent the growth factor mediated proliferation of smooth muscle within the artery, compound 1436 was evaluated in vitro for its effect on the proliferation of human coronary artery smooth muscle. Results for compound 1436 are shown in FIG. 13, and those for squalamine are shown in FIG. 14, with FIG. 15 being a composite logarithmic plot.

[9] = system: stage 59-60 Xenopus tadpoles; details: 10 μg/ml in water
[10] = system: bacteria, fungi and protozoa; details: cited from earlier work
rabbit NHE3 = rabbit NHE3 (Oryctolagus cuniculus, UniProt P26432); details: 5 μg/ml
Chain of rabbit NHE3 (P26432 30-832): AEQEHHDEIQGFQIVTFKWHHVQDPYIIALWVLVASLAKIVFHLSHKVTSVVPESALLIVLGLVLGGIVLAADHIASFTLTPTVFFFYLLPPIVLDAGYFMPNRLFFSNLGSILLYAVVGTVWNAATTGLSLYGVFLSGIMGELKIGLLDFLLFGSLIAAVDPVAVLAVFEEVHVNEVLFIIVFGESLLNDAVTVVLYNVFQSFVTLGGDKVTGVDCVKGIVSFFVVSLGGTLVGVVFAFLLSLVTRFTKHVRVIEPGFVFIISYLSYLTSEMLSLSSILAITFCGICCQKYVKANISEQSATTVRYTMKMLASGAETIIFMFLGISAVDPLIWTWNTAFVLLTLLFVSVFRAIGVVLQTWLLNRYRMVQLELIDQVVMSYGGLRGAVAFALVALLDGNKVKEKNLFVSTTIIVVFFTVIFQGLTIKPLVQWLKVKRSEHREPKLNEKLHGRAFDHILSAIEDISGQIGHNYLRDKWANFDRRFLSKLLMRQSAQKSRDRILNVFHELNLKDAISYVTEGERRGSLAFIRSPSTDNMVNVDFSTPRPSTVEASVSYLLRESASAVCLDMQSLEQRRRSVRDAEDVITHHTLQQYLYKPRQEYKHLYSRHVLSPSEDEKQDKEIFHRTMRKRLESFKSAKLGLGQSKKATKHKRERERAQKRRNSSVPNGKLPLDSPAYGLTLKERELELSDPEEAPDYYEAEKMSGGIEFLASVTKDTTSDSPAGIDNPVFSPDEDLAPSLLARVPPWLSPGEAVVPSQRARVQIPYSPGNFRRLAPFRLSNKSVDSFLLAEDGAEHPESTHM
Description: Internal pH was measured either following acid loading or in the absence of an acid-loading challenge, with the results shown in FIGS. 1A and 1B.
Specifically, PS120 fibroblasts transfected with rabbit NHE3 were grown in supplemented Dulbecco's-modified Eagle's medium as described by Levine et al., J. Biol. Chem. 268, 1993, 25527-25535. […] For cells not acid-preloaded, the actual internal pH value was monitored as a function of time following addition of squalamine, with the results depicted in FIG. 1B.
PS120 fibroblasts transfected with rabbit NHE3 were grown and acid preloaded by exposure to 40 mM NH4 Cl as described above in conjunction with FIGS. 1A and 1B. Internal cellular pH changes expressed as the rate of pH recovery as a function of restored extracellular sodium ion concentration following exposure to 10 μg/ml of the compound were assayed with the fluorescent dye BCECF-AM as described above.

## CC(C)[C@@H](CC[C@@H](C)[C@H]1CC[C@H]2[C@@H]3[C@H](O)C[C@H]4C[C@@H](NCCCNCCCCN)CC[C@]4(C)[C@H]3CC[C@]12C)OS(=O)(=O)O [Squalamine, squalamine]
Rabbit NHE1
  inhibition of rabbit NHE1: no inhibitory activity
[1]
  growth of epithelial line: no effect on the growth
[2]
  growth of fibroblast line: no effect on the growth
[3]; 0.01 μg/ml
  effect on endothelial cord formation: -
[3]; 0.1 μg/ml
  effect on endothelial cord formation: +
[3]; 1.0 μg/ml
  effect on endothelial cord formation: +
[3]; 10.0 μg/ml
  effect on endothelial cord formation: +
[3]; at these concentrations
  cell viability or proliferation: does not appear to profoundly affect cell viability or proliferation
[4]; 3-day CAM
  amount resulting in inhibition of CAM vessel neovascularization: ≤ 0.65 µg
[4]; ten times 0.65 μg
  inhibitory effect on 13-day old chick: no inhibitory effect
[5]; 0.001 μg applied
  vitelline capillary regression: 0
[5]; 0.01 μg applied
  vitelline capillary regression: +
[5]; 0.1 μg applied
  vitelline capillary regression: +
[5]; 1 μg applied
  vitelline capillary regression: +
[5]; 10 μg applied
  vitelline capillary regression: +
[5]; 0.1 ml in 15% Ficol in PBS
  hemolysis: absence of hemolysis
  hemorrhage: No hemorrhage was seen
  lag period before vessel constriction: around 15 minutes
[5]; in vivo
  activity in vitelline capillary regression assay (in words): especially active
  effect on chick embryo vitelline capillaries (in words): found to disrupt vitelline capillaries in 3- to 5-day chick embryos
B16 melanoma; intraperitoneal
  suppression of tumor volume: a dose-dependent suppression of tumor volume was observed
B16 melanoma; oral
  suppression of tumor volume: a dose-dependent suppression of tumor volume was observed
B16 melanoma; s.c., i.p. or oral treatment
  body weight and hematologic parameters: no significant depression
B16 melanoma; squalamine 15 mg/kg/day, compound 1436 alone in a tolerable schedule
  tumor growth, single agent: Neither administration of squalamine at 15 mg/kg/day nor compound 1436 alone in a tolerable schedule could achieve this effect
B16 melanoma; squalamine alone 5 mg/kg/day
  impact on tumor volume: no significant impact on tumor volume
B16 melanoma; subcutaneous
  suppression of tumor volume: a dose-dependent suppression of tumor volume was observed
[6]; day 7
  inhibition of new blood vessel formation: about 60%
[6]; day 14
  inhibition of new blood vessel formation: about 60%
[7]; 10 μg/ml
  inhibition of blast transformation (in words): Some effect was observed
[7]; Homo sapiens, Lymphocyte, 1 μg/ml, read-out: inhibition of PHA-stimulated human lymphocytes (% control)
  inhibition at 1 µg/mL: 3%
[7]; Homo sapiens, Lymphocyte, 5 μg/ml, read-out: inhibition of PHA-stimulated human lymphocytes (% control)
  inhibition at 5 µg/mL: 8%
[7]; Homo sapiens, Lymphocyte, 10 μg/ml, read-out: inhibition of PHA-stimulated human lymphocytes (% control)
  inhibition at 10 µg/mL: 10%
[8]
  suppression of growth (in words): suppress in vitro the growth of human coronary artery smooth muscle
[9]
  time to death of tadpole: ≤ 2 h
[9]; listed as Compound 1256 (Squalamine)
  pharmacological response in tadpole: Vascular occlusion in fine capillaries of tail. No effect on vascular flow through hands or feet.
[10]
  antibiotic activity: broad-spectrum antibiotic, killing bacteria, fungi and protozoa
Rabbit NHE3; acid-preloaded by 40 mM NH4Cl
  inhibition of NHE3: inhibited NHE3 with respect to proton concentration at both Km and Vmax levels
Rabbit NHE3; cells not acid-preloaded
  resting pH: the resting pH of these cells was also inhibited
